The supplement of paper PMC10627819

Tests used:
Assay in all cases: fitness (endpoint OD595 vs no drug) (fraction); higher = more growth
S. pneumoniae D39V = tested on: S. pneumoniae D39V
How it was run: (§1)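 Fitness compares growth at the stationary-phase transition with the robust mean of no-drug control wells, as a ratio of optical densities. The ratio is capped at 1. Wells of 384-well plates held 30 µl, or 55 µl for S. pneumoniae, inoculated at OD595 0.01. Readings at OD595 every 30 min for 14 h at 37 °C were corrected against the first reading.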

B. subtilis 168 = tested on: B. subtilis 168
How it was run: as §1

S. aureus DSM 20231 = tested on: S. aureus DSM 20231
How it was run: as §1
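Further: OD595 on entry to stationary phase over no-drug wells; at most 1.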

CN(C)[C@@H]1C(O)=C(C(N)=O)C(=O)[C@@]2(O)C(O)=C3C(=O)c4c(O)ccc(Cl)c4[C@@](C)(O)[C@H]3C[C@@H]12 [Chlortetracycline] + CCC[C@@H]1C[C@@H](C(=O)N[C@@H]([C@H]2O[C@H](SC)[C@H](O)[C@@H](O)[C@H]2O)[C@@H](C)O)N(C)C1 [Lincomycin]
Details	fitness
B. subtilis 168, first compound 0.0475 µg/mL, partner 0.1 µg/mL	0.87
B. subtilis 168, first compound 0.0475 µg/mL, partner 0.2 µg/mL	0.862
B. subtilis 168, first compound 0.0475 µg/mL, partner 0.4 µg/mL	0.85
B. subtilis 168, first compound 0.095 µg/mL, partner 0.1 µg/mL	0.805
B. subtilis 168, first compound 0.095 µg/mL, partner 0.2 µg/mL	0.817
B. subtilis 168, first compound 0.095 µg/mL, partner 0.4 µg/mL	0.803
B. subtilis 168, first compound 0.19 µg/mL, partner 0.1 µg/mL	0.648
B. subtilis 168, first compound 0.19 µg/mL, partner 0.2 µg/mL	0.489
B. subtilis 168, first compound 0.19 µg/mL, partner 0.4 µg/mL	0.406
S. aureus DSM 20231, first compound 0.012 µg/mL, partner 0.1 µg/mL	0.472
S. aureus DSM 20231, first compound 0.012 µg/mL, partner 0.2 µg/mL	0.259
S. aureus DSM 20231, first compound 0.012 µg/mL, partner 0.4 µg/mL	0.0974
S. aureus DSM 20231, first compound 0.024 µg/mL, partner 0.1 µg/mL	0.233
S. aureus DSM 20231, first compound 0.024 µg/mL, partner 0.2 µg/mL	0.104
S. aureus DSM 20231, first compound 0.024 µg/mL, partner 0.4 µg/mL	0.0491
S. aureus DSM 20231, first compound 0.048 µg/mL, partner 0.1 µg/mL	0.0441
S. aureus DSM 20231, first compound 0.048 µg/mL, partner 0.2 µg/mL	0.0385
S. aureus DSM 20231, first compound 0.048 µg/mL, partner 0.4 µg/mL	0.0333
S. pneumoniae D39V, first compound 0.012 µg/mL, partner 0.215 µg/mL	0.802
S. pneumoniae D39V, first compound 0.012 µg/mL, partner 0.43 µg/mL	0.716
S. pneumoniae D39V, first compound 0.012 µg/mL, partner 0.86 µg/mL	0.268
S. pneumoniae D39V, first compound 0.024 µg/mL, partner 0.215 µg/mL	0.769
S. pneumoniae D39V, first compound 0.024 µg/mL, partner 0.43 µg/mL	0.666
S. pneumoniae D39V, first compound 0.024 µg/mL, partner 0.86 µg/mL	0.246
S. pneumoniae D39V, first compound 0.048 µg/mL, partner 0.215 µg/mL	0.636
S. pneumoniae D39V, first compound 0.048 µg/mL, partner 0.43 µg/mL	0.426
S. pneumoniae D39V, first compound 0.048 µg/mL, partner 0.86 µg/mL	0.222
S. pneumoniae D39V, first compound 0.375 µg/mL, partner 0.2 µg/mL	0.0295
S. pneumoniae D39V, first compound 0.375 µg/mL, partner 0.4 µg/mL	0.0454
S. pneumoniae D39V, first compound 0.375 µg/mL, partner 0.8 µg/mL	0.0386
S. pneumoniae D39V, first compound 0.75 µg/mL, partner 0.2 µg/mL	0.0393
S. pneumoniae D39V, first compound 0.75 µg/mL, partner 0.4 µg/mL	0.0417
S. pneumoniae D39V, first compound 0.75 µg/mL, partner 0.8 µg/mL	0.0458
S. pneumoniae D39V, first compound 1.5 µg/mL, partner 0.2 µg/mL	0.0273
S. pneumoniae D39V, first compound 1.5 µg/mL, partner 0.4 µg/mL	0.035
S. pneumoniae D39V, first compound 1.5 µg/mL, partner 0.8 µg/mL	0.0234

one replicate
Details	fitness
B. subtilis 168, first compound 0.0475 µg/mL, partner 0.8 µg/mL	0.845
B. subtilis 168, first compound 0.0475 µg/mL, partner 1.6 µg/mL	0.761
B. subtilis 168, first compound 0.095 µg/mL, partner 0.8 µg/mL	0.692
B. subtilis 168, first compound 0.095 µg/mL, partner 1.6 µg/mL	0.5
B. subtilis 168, first compound 0.19 µg/mL, partner 0.8 µg/mL	0.0991
B. subtilis 168, first compound 0.19 µg/mL, partner 1.6 µg/mL	0.0613
S. aureus DSM 20231, first compound 0.006 µg/mL, partner 0.1 µg/mL	0.712
S. aureus DSM 20231, first compound 0.006 µg/mL, partner 0.2 µg/mL	0.483
S. aureus DSM 20231, first compound 0.006 µg/mL, partner 0.4 µg/mL	0.203

CN(C)[C@@H]1C(O)=C(C(N)=O)C(=O)[C@@]2(O)C(O)=C3C(=O)c4c(O)ccc(Cl)c4[C@@](C)(O)[C@H]3C[C@@H]12 [Chlortetracycline] + CCN(CC)CCOC(=O)c1ccc(N)cc1 [Procaine]
fitness, one replicate
Details	partner 85.5 µg/mL	partner 171 µg/mL	partner 342 µg/mL
S. aureus DSM 20231, first compound 0.006 µg/mL	0.713	0.8	0.737
S. pneumoniae D39V, first compound 0.012 µg/mL	0.95	0.897	0.929
S. pneumoniae D39V, first compound 0.024 µg/mL	0.921	0.835	0.86
S. pneumoniae D39V, first compound 0.048 µg/mL	0.835	0.726	0.736

fitness
Details	partner 85.5 µg/mL	partner 171 µg/mL	partner 342 µg/mL
B. subtilis 168, first compound 0.0475 µg/mL	0.908	0.855	0.878
B. subtilis 168, first compound 0.095 µg/mL	0.695	0.699	0.703
B. subtilis 168, first compound 0.19 µg/mL	–	0.528	–
S. aureus DSM 20231, first compound 0.012 µg/mL	0.568	0.615	0.613
S. aureus DSM 20231, first compound 0.024 µg/mL	0.23	0.2	0.2
S. aureus DSM 20231, first compound 0.048 µg/mL	0.0791	0.058	0.0382
S. pneumoniae D39V, first compound 0.375 µg/mL	0.0458	0.0259	0.0318
S. pneumoniae D39V, first compound 0.75 µg/mL	0.055	0.0347	0.0395
S. pneumoniae D39V, first compound 1.5 µg/mL	0.0277	0.0174	0.0396
